Where two headings read alike, the source gives them in different places.
Columns and labels:
[1] = test system: HCV replicon GT1a_L31V; assay: Cell-based HCV replicon assay, GT1a L31V; conditions: Hepatitis C virus, 72 h, read-out: GT1a_L31V EC90
Procedure: (§1) To measure cell-based anti-HCV activity of compounds of the present invention, two complimentary assays were employed using various replicons. In the first assay (“Replicon Assay A”), replicon cells were seeded at 2000 cells/well in 384-well 384-well flat bottom tissue culture treated clear bottom plate (Corning 3707) in the presence of the test compound. Various concentrations of test compound, typically in 10 serial dilutions, were added to the assay mixture, with the starting concentration ranging from 333.3 nM to […]. The final concentration of DMSO was 0.5%. Fetal bovine serum was 5%, in the assay media. Cells were harvested on day 3 by removing media and washing the cells with a suitable wash buffer. The cells are lysed with the addition of 1× Qiagen lysis buffer (Cat #1062731). The replicon RNA level was measured using real time PCR (TaqMan® EZ RT-PCR, Applied Biosystems 403028) with the following primers and probes: […]
(§2) Cyclophilin RNA was used as endogenous control and was amplified in the same reaction as NS5B (multiplex PCR). The real-time RT-PCR reactions were run on ABI PRISM 7900HT Sequence Detection System using the following program: 50° C. for 2 minutes, 60° C. for 30 minutes, 95° C. for 5 minutes, 40 cycles of 94 C for 20 sec, 55 C for 1 minutes.
(§3) The amount of HCV replicon RNA per cell is quantified using a linear regression curve for a known nanogram (ng) amount of HCV replicon total RNA. This is established by plotting the Cycle Threshold values (Ct) from the Neo probe and primer set versus the log (ng) for each HCV replicon total RNA standard. The amount of HCV RNA for each replicon sample is calculated by taking the sample's Ct value, minus the line intercept, divided by the slope of the line. Similarly, the amount of Cyclophilin mRNA per cell is also quantified using a linear regression curve for a known nanogram (ng) amount of HCV replicon total RNA. Again, this is established by plotting the Cycle Threshold values (Ct) from the Cyclophilin probe and primer set versus the log (ng) for each HCV replicon total RNA standard.
(§4) In an alternate assay (“Replicon Assay B”), 1000 cells were seeded per well in a 384-well collagen coated black plate from Greiner bio-one (Cat #781946) in 5% FBS. Inhibitors of this invention were added at 24 h post-seeding, and the plates were incubated for 3 days. Cells were subsequently lysed with Qiagen lysis buffer (Cat #1062731) to extract the RNA. HCV replicon RNA level was measured by real-time PCR using the RNA-to-CT kit from Applied Biosystem (Cat #4392656) and genotype-specific primers and probes. The amplicon was located within NS5B. The sequence of the PCR primers are as follows: 5B.2F, ATGGACAGGCGCCCTGA (SEQ. ID NO. 1); 5B.2R, […] (SEQ. ID NO. 2); the probe sequence was FAM-labeled CACGCCATGCGCTGCGG (SEQ. ID NO. 3). To detect genotype 1A the primer 1A F, TGCGGAACCGGTGAGTACA and 1A R, […] were used; the probe sequence was FAM-[…].
(§5) The real-time RT-PCR reactions were run on ABI PRISM 7900HT or Viia7 Sequence Detection System using the following program: 48° C. for 30 minutes, 95 C for 10 minutes, 40 cycles of 95 C for 15 sec, 60 C for 1 minutes. The 50% effective concentration (EC50) was the drug concentration necessary to achieve an increase in the cycle threshold (CT) of 1 over the projected baseline CT. The EC90 was the drug concentration necessary to achieve an increase in CT of 3.2 over the projected baseline CT.

[2] = test system: HCV replicon GT2a; assay: Cell-based HCV replicon assay, GT2a; conditions: Hepatitis C virus, 72 h, read-out: GT2a EC90
Procedure: as §1, §2, §3, §4, §5

[3] = test system: HCV replicon GT3a_Y93H; assay: Cell-based HCV replicon assay, GT3a Y93H; conditions: Hepatitis C virus, 72 h, read-out: GT3a_Y93H EC90
Procedure: as §1, §2, §3, §4, §5

[4] = test system: HCV replicon GT3a_WT; assay: Cell-based HCV replicon assay, GT3a WT; conditions: Hepatitis C virus, 72 h; replicon RNA level by real-time PCR, 3 days
Procedure: as §1, §2, §3, §4, §5

[5] = test system: HCV replicon GT1a_Y93H; assay: Cell-based HCV replicon assay, GT1a Y93H; conditions: Hepatitis C virus, 72 h, read-out: GT1a_Y93H EC90
Procedure: as §1, §2, §3, §4, §5

[6] = test system: HCV replicon GT5; assay: Cell-based HCV replicon assay, GT5; conditions: Hepatitis C virus, GT5, 72 h; replicon RNA level by real-time PCR, 3 days
Procedure: as §1, §2, §3, §4, §5

[7] = test system: HCV replicon GT2b_31M; assay: Cell-based HCV replicon assay, GT2b 31M; conditions: Hepatitis C virus, 72 h, read-out: GT2b_31M EC90
Procedure: as §1, §2, §3, §4, §5

[8] = test system: HCV replicon GT1a_Q30R; assay: Cell-based HCV replicon assay, GT1a Q30R; conditions: Hepatitis C virus, 72 h, read-out: GT1a_Q30R EC90
Procedure: as §1, §2, §3, §4, §5

[9] = test system: HCV replicon GT1b_WT; assay: Cell-based HCV replicon assay, GT1b WT; conditions: Hepatitis C virus, 72 h, read-out: GT1b_WT EC90
Procedure: as §1, §2, §3, §4, §5

[10] = test system: HCV replicon GT6; assay: Cell-based HCV replicon assay, GT6; conditions: Hepatitis C virus, GT6, 72 h; replicon RNA level by real-time PCR, 3 days
Procedure: as §1, §2, §3, §4, §5

[11] = test system: HCV replicon GT4; assay: Cell-based HCV replicon assay, GT4; conditions: Hepatitis C virus, GT4, 72 h; replicon RNA level by real-time PCR, 3 days
Procedure: as §1, §2, §3, §4, §5

[12] = replicon RNA level by real-time PCR, 3 days

COC(=O)NC(C(=O)N1CCC[C@H]1c1ncc(-c2ccc3c(c2)cc2n3[C@H](c3cnc(C4CC4)s3)Oc3cc(-c4cnc([C@@H]5C[Si](C)(C)CN5C(=O)[C@H](N)c5ccccc5)[nH]4)cc(F)c3-2)[nH]1)C(C)C (some centres unmarked) [Compound 10]
EC90 [1]: 0.859 nM | EC90 [2, 12]: 0.00246 nM | EC90 [3]: 126 nM | EC90 [4]: 5.48 nM | EC90 [5]: 4.28 nM | EC90 [6]: 0.0139 nM | EC90 [7]: 12 nM | EC90 [8]: 0.387 nM | EC90 [9, 12]: 0.00142 nM | EC90 [10]: 0.008 nM

COC(=O)N[C@H](C(=O)N1CCC[C@H]1c1ncc(-c2ccc3c(c2)cc2n3[C@H](c3cnc(C4CC4)s3)Oc3cc(-c4cnc([C@@H]5C[Si](C)(C)CN5C(=O)[C@@H](NC(=O)OC)C(C)C)[nH]4)cc(F)c3-2)[nH]1)C(C)C [Compound 6]
EC90 [11]: 0.00135 nM | EC90 [1]: 0.0599 nM | EC90 [2]: 0.00339 nM | EC90 [3]: 118 nM | EC90 [4]: 1.32 nM | EC90 [5]: 0.199 nM | EC90 [6]: 0.0069 nM | EC90 [7]: 3.04 nM | EC90 [8]: 0.0729 nM | EC90 [9]: 0.00116 nM | EC90 [10]: 0.0057 nM

COC(=O)N[C@H](C(=O)N1CCC[C@H]1c1ncc(-c2cc(F)c3c(c2)O[C@@H](c2ccc(C4CC4)s2)n2c-3cc3cc(-c4cnc([C@@H]5C[Si](C)(C)CN5C(=O)[C@@H](NC(=O)OC)C(C)C)[nH]4)ccc32)[nH]1)C(C)C [Compound 13]
EC90 [11]: 0.0015 nM | EC90 [1]: 0.0756 nM | EC90 [2]: 0.00338 nM | EC90 [3]: 614 nM | EC90 [4]: 0.469 nM | EC90 [5]: 0.561 nM | EC90 [6]: 0.0061 nM | EC90 [7]: 0.933 nM | EC90 [8]: 0.0328 nM | EC90 [9]: 0.00118 nM | EC90 [10]: 0.0108 nM

CNC(C(=O)N1C[Si](C)(C)C[C@H]1c1ncc(-c2ccc3c(c2)cc2n3[C@H](c3cnc(C4CC4)s3)Oc3cc(-c4cnc([C@@H]5CCCN5C(=O)[C@@H](NC(=O)OC)C(C)C)[nH]4)cc(F)c3-2)[nH]1)c1ccccc1 (some centres unmarked) [Compound 5]
EC90 [1]: 0.0359 nM | EC90 [3]: 110 nM | EC90 [4]: 0.257 nM | EC90 [5]: 0.33 nM | EC90 [6]: 0.0086 nM | EC90 [7]: 0.378 nM | EC90 [8]: 0.0155 nM | EC90 [9, 12]: 0.0021 nM | EC90 [10]: 0.0088 nM

COC(=O)N[C@H](C(=O)N1CCC[C@H]1c1ncc(-c2cc(F)c3c(c2)O[C@@H](c2cnc(C4CC4)s2)n2c-3cc3cc(-c4cnc([C@@H]5C[Si](C)(C)CN5C(=O)[C@@H](NC(=O)OC)[C@@H]5CCOC(C)(C)C5)[nH]4)ccc32)[nH]1)C(C)C [Compound 3]
EC90 [11]: 0.00112 nM | EC90 [1]: 0.0097 nM | EC90 [2]: 0.00167 nM | EC90 [3]: 370 nM | EC90 [4]: 0.285 nM | EC90 [5]: 0.079 nM | EC90 [6]: 0.0073 nM | EC90 [7]: 0.431 nM | EC90 [8]: 0.008 nM | EC90 [9]: 0.001 nM | EC90 [10]: 0.0076 nM

COC(=O)N[C@H](C(=O)N1CCC[C@H]1c1ncc(-c2cc(F)c3c(c2)O[C@@H](c2cnc(C4CC4)s2)n2c-3cc3cc(-c4cnc([C@@H]5C[Si](C)(C)CN5C(=O)C(N)c5ccccc5)[nH]4)ccc32)[nH]1)C(C)C (some centres unmarked) [Compound 12]
EC90 [1]: 0.149 nM | EC90 [2, 12]: 0.00152 nM | EC90 [3]: 155 nM | EC90 [4]: 0.036 nM | EC90 [5]: 0.334 nM | EC90 [6]: 0.0144 nM | EC90 [7]: 0.061 nM | EC90 [8]: 0.0776 nM | EC90 [9, 12]: 0.00141 nM | EC90 [10]: 0.0863 nM
